Biological target: T1, native membrane-anchored human CD73 (in MDA-MB-231 cell membrane preparations) (Homo sapiens, UniProt P21589)
T1 construct: membrane preparations of MDA-MB-231 cells; endogenous in cells; host or cells: MDA-MB-231 cell membrane preparations
T1 sequence (P21589 27-549 limits assumed): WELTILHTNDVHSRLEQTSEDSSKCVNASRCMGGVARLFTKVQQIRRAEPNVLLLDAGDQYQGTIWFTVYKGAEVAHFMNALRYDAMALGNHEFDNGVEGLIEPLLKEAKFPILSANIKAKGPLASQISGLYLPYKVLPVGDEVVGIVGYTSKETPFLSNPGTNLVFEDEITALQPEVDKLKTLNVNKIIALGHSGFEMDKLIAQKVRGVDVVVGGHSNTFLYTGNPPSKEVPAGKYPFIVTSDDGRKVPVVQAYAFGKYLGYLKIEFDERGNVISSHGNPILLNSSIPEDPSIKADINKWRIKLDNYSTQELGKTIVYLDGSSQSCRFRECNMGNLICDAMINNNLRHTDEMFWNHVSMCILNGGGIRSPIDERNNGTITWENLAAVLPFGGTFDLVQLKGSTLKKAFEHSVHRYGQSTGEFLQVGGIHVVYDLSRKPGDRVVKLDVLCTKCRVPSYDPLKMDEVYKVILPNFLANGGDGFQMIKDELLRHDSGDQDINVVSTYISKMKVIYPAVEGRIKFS
Test: CD73 enzyme inhibition assay with [2,8-3H]AMP, MDA-MB-231 membrane preparations
Type: biochemical
Details: [2,8-3H]AMP (5 μM) as substrate, read-out: Human CD73 MDA-MB-231 Ki ± SEM
Protocol: Compound 2b, its precursor 1, and 20 were investigated for their CD73-inhibitory potency using tritium-labeled AMP as a substrate.^20 After incubation with CD73, non-hydrolyzed substrate and inorganic phosphate were precipitated using a solution of lanthanum chloride, and the precipitate was separated from the solution containing the reaction product [2,8-^3H]adenosine by filtration through GF/B glass fiber filters (WhatmanTM GE Healthcare, Chicago, IL, USA) using a cell harvester (M-48, Brandel, Gaitherburg, MD, USA). The filtrates (ca. 1.8 mL each) were transferred to scintillation vials, scintillation cocktail ULTIMA Gold XR (PerkinElmer, Waltham, MA, USA) was added (5 mL), and the radioactivity esd quantified by scintillation counting. CD73 preparations were (1) recombinant soluble human CD73,^13 (2) recombinant soluble rat CD73,^21 both expressed in Spodoptera frugiperda 9 (Sf) cells, (3) membrane preparations of MDA-MB-231 cells,^16 a human triple-negative breast cancer cell line with high expression of CD73,^18 and (4) membrane preparations of the 4T1.2 cell line, a mouse CD73-expressing breast cancer cell line.^22 The potency of the compounds was determined by measurements of full concentration-inhibition curves. K values were calcuated from the obtained IC50 values employing the Cheng-Prusoff equation.^23 […]

| Ki | SMILES |
| --- | --- |
| 2.78 ± 0.47 nM | CCCN(Cc1ccc(-c2cn(CCF)nn2)cc1)c1nc(Cl)nc2c1ncn2[C@@H]1O[C@H](COP(=O)(O)CP(=O)(O)O)C(O)C1O (some centres unmarked) [Compound 2] |
| 6.76 ± 1.25 nM | O=C(NCCCCCCNC(=O)c1ccc2c(c1)C1(OC2=O)c2ccc(O)cc2Oc2cc(O)ccc21)c1ccc(CNc2nc(Cl)nc3c2ncn3[C@@H]2O[C@H](COP(=O)(O)CP(=O)(O)O)[C@@H](O)[C@H]2O)cc1 [Compound 20, (((((2R,3S,4R,5R)-5-(2-chloro-6-((4-((6-(3′,6′-dihydroxy-3-oxo-3H-spiro[isobenzofuran-1,9′-xanthene]-6-carboxamido)-hexyl)carbamoyl)benzyl)amino)-9H-purin-9-yl)-3,4-dihydroxytetrahydrofuran-2-yl)methoxy)(hydroxy)phosphoryl)methyl)phosphonic acid] |

Reference: patent publication US20250382322A1, “DIAGNOSTICS FOR DETECTING ECTO-5'-NUCLEOTIDASE (CD73)” (EBERHARD KARLS UNIVERSITÄT TÜBINGEN, priority 2022, published 2025)
